Reference: patent publication US7297714B2, “Inhibitors of cathepsin S” (IRM LLC, priority 2003, dated 2007)

How the values were obtained:
Format in all cases: biochemical
Cathepsin S = Cathepsin S (Homo sapiens, UniProt P25774); test: Cathepsin S inhibition assay (fluorogenic peptide substrate); conditions: Cathepsin S inhibition constant; pH5.5; read-out: Ki Cat. S
From the text: “Inhibition constant”, Ki, is the dissociation constant of the enzyme-inhibitor complex, or the reciprocal of the binding affinity of the inhibitor to the enzyme. For classical inhibition the value of Ki is much greater than the enzyme concentration and the Ki can be measured by monitoring the rate of reaction for a competitive substrate at multiple inhibitor concentrations. The inhibited rates are then fit by nonlinear regression to the following equation: […]
The assumption being made for the classical inhibition described above is that the free inhibitor concentration is equal to the total inhibitor concentration. For inhibitors that have Ki's that are approximately equal to the enzyme concentration [E], the assumption that the free inhibitor concentration is equal to the total inhibitor concentration is no longer valid and an alternative equation has to be fit for determination of the apparent inhibition constant, Ki^app using described methods (Kuzmic, P., K. C. Elrod, et al., Anal Biochem 2000, 286(1), 45-50):
(§1) The optimal substrate for cathepsin S, acetyl-histidine-proline-valine-lysine-amino carbamoyl coumarin, was identified from screening a combinatorial library of fluorogenic peptide substrates (Harris, J. L., B. J. Backes, et al., Proc Natl Acad Sci U S A 2000, 97(14), 7754-9). Kinetic measurements are performed in a total reaction volume of 30 μl in 384-well microtiter plates. Cathepsin S, at a final concentration of 0.3-3 nM (active site), is incubated with the compounds at twelve varying concentrations in a buffer containing 100 mM NaAc (pH5.5), 1 mM EDTA, 100 mM NaCl, 0.01% Brij-35 for 20 minutes at room temperature. Control reactions in the absence of inhibitor are performed in replicates of 24. The reactions are initiated by adding the substrate, acetyl-histidine-proline-valine-lysine-amino carbamoyl coumarin, to a final concentration of 50 μM. The rate of substrate hydrolysis is measured by monitoring the increase in fluorescence at an excitation wavelength of 380 nm and an emission wavelength of 450 nm that results from cleavage of the aniline bond in the substrate by the enzyme. The apparent inhibition constants for the compounds are determined from the enzyme progress curves (Kuzmic, P., K. C. Elrod, et al., Anal Biochem 2000, 286(1), 45-50) and are then used to calculate the inhibition constants for competitive inhibitors.

Cathepsin K = molecular target: T1, Cathepsin K (Homo sapiens, UniProt P43235); test: Cathepsin K inhibition assay, selectivity for cathepsin S over cathepsin K; conditions: ratio of cathepsin K inhibition constant to cathepsin S inhibition constant
T1 sequence (P43235 115-329): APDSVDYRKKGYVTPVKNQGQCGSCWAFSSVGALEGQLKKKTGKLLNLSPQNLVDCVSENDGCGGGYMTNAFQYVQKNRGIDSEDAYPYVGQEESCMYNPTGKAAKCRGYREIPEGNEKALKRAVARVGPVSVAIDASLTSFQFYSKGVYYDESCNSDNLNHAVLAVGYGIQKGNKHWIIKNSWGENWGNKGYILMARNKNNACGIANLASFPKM
Method: as §1, with “cathepsin K, acetyl-lysine-histidine-proline-lysine-amino” for “cathepsin S, acetyl-histidine-proline-valine-lysine-amino”, “Sci USA” for “Sci U S A”, “Cathepsin K,” for “Cathepsin S,”, “of 3.5” for “of 0.3-3”, “substrate, acetyl-lysine-histidine-proline-lysine-amino” for “substrate, acetyl-histidine-proline-valine-lysine-amino”, “of 40” for “of 50”
(§2) Selectivity for cathepsin S in the presence of cathepsin isozymes was determined by the ratio of the cathepsin isozyme inhibition constant of a compound of the present invention to the cathepsin S inhibition constant of the same compound. Preferred compounds of the present invention selective for cathepsin S have ratios of greater than 10. More preferred compounds of the present invention selective for cathepsin S have ratios of greater than 100. Most preferred compounds of the present invention selective for cathepsin S have ratios of greater than 1000.

Cathepsin L = Cathepsin L (Homo sapiens, UniProt P07711); test: Cathepsin L inhibition assay, selectivity for cathepsin S over cathepsin L; conditions: ratio of cathepsin L inhibition constant to cathepsin S inhibition constant
Cathepsin L, sequence (P07711 114-333, species assumed): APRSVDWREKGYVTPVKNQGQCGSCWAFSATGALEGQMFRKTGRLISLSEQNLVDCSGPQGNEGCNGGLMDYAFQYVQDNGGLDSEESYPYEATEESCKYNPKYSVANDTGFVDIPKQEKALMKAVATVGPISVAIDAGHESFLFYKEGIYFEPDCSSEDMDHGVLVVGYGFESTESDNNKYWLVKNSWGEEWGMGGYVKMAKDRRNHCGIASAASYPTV
Method: The optimal substrate for cathepsin L, acetyl-histidine-lysine-phenylalanine-lysine-amino carbamoyl coumarin, was identified from screening a combinatorial library of fluorogenic peptide substrates (Harris, J. L., B. J. Backes, et al.; Proc Natl Acad Sci USA 2000, 97(14), 7754-9). Kinetic measurements are performed in a total reaction volume of 30 μl in 384-well microtiter plates. Cathepsin L, at a final concentration of 0.1 nM (active site), is incubated with the compounds at twelve varying concentrations in a buffer containing 100 mM NaAc (pH5.5), 1 mM EDTA, 100 mM NaCl, 0.01% Brij-35 for 20 minutes at room temperature. Control reactions in the absence of inhibitor are performed in replicates of 24. The reactions are initiated by adding the substrate, acetyl-histidine-lysine-phenylalanine-lysine-amino carbamoyl coumarin, to a final concentration of 20 μM. The rate of substrate hydrolysis is measured by monitoring the increase in fluorescence at an excitation wavelength of 380 nm and an emission wavelength of 450 nm that results from cleavage of the aniline bond in the substrate by the enzyme. The apparent inhibition constants for the compounds are determined from the enzyme progress curves (Kuzmic, P., K. C. Elrod, et al., Anal Biochem 2000, 286(1), 45-50) and are then used to calculate the inhibition constants for competitive inhibitors.
as §2

Cathepsin B = Cathepsin B (Homo sapiens, UniProt P07858); test: Cathepsin B inhibition assay, selectivity for cathepsin S over cathepsin B; conditions: ratio of cathepsin B inhibition constant to cathepsin S inhibition constant
Method: as §1, with “cathepsin B,” for “cathepsin S,”, “Sci US” for “Sci U S”, “Cathepsin B,” for “Cathepsin S,”, “of 1.5” for “of 0.3-3”, “of 10” for “of 50”
as §2

Cathepsin S, sequence (P25774 115-331, species assumed): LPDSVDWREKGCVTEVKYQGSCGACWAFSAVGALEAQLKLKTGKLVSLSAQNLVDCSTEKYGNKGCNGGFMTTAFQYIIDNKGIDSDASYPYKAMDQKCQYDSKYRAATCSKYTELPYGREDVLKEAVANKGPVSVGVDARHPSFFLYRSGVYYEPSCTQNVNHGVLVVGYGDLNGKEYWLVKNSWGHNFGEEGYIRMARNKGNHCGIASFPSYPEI

Row | SMILES | Ki (Cathepsin S) [nM] | Selectivity for Cat. S over Cat. K (Cathepsin K) | Selectivity for Cat. S over Cat. L (Cathepsin L) | Selectivity for Cat. S over Cat. B (Cathepsin B)
1 | O=C1C[C@H](NC(=O)[C@H](CC2CCCCC2)NC(=O)c2ccc(-c3cccc(F)c3)o2)C(O)O1 (mixture of isomers) [Example 15, (3S)-(3-Cyclohexyl-(2S)-{[5-(3-fluoro-phenyl)-furan-2-carbonyl]-amino}-propionylamino)-4-oxo-butyric acid] | < 100 | ++ (++, >100) | ++ (++, >100) | +++ (+++, >1000)
2 | O=C1C[C@H](NC(=O)[C@H](CC2CCCCC2)NC(=O)OCc2ccccc2)C(OCc2ccccc2)O1 (stereo partly drawn) [Example 11, (3S)-[(2S)-benzyloxycarbonylamino-3-cycohexyl-propionylamino]-2-benzyloxy-5-oxo-tetrahydrofuran] | < 100 | + (+, >10) | – | + (+, >10)
3 | CCOC1OC(=O)C[C@@H]1NC(=O)[C@H](CC1CCCC1)NC(=O)c1ccc(-c2cccc(F)c2)o1 (stereo partly drawn) [Example 12, (3S)-[3-Cyclopentyl-(2S)-{[5-(3-fluoro-phenyl)-furan-2-carbonyl]-amino}propionylamino]-2-ethoxy-5-oxo-tetrahydrofuran] | < 100 | + (+, >10) | ++ (++, >100) | ++ (++, >100)
4 | CCO[C@@H]1OC(=O)C[C@@H]1NC(=O)[C@H](CC(C)(C)C)NC(=O)OC(C)(C)C [Example 13, (3S)-[(2S)-t-butoxycarbonylamino-4,4-dimethyl-pentanoylamino]-(2R)-ethoxy-5-oxo-tetrahydrofuran] | < 1000 | – | + (+, >10) | ++ (++, >100)
5 | COC1OC(=O)C[C@@H]1NC(=O)[C@H](CC1CCCCC1)NC(=O)c1ccc(-c2cccc(F)c2)o1 (stereo partly drawn) [Example 16, (3S)-[3-Cyclohexyl-(2S)-{[5-(3-fluoro-phenyl)-furan-2-carbonyl]-amino}propionylamino]-2-methoxy-5-oxo-tetrahydrofuran] | < 1000 | + (+, >10) | + (+, >10) | + (+, >10)
6 | N#Cc1cccc(C(=O)N[C@@H](CC2CCCC2)C(=O)N[C@H]2CC(=O)OC2O)c1 (stereo partly drawn) [Example 18, (3S)-((2S)-(3-cyanophenyl-carbonylamino)-3-cyclopentyl-propionylamino)-4-oxo-butyric acid] | < 100 | ++ (++, >100) | + (+, >10) | +++ (+++, >1000)
7 | O=C1C[C@H](NC(=O)[C@H](CC2CCCC2)NC(=O)C2CC2)C(O)O1 (stereo partly drawn) [Example 19, (3S)-(3-Cyclopentyl-(2S)-(cyclopropylcarbonylamino)-propionylamino)-4-oxo-butyric acid] | < 100 | ++ (++, >100) | +++ (+++, >1000) | +++ (+++, >1000)
8 | O=C1C[C@H](NC(=O)[C@H](CC2CCCC2)NC(=O)OC2CCOCC2)C(O)O1 (stereo partly drawn) [Example 20, (3S)-(3-Cyclopentyl-(2S)-(tetrahydro-pyran-4-yloxycarbonylamino)-propionylamino)-4-oxo-butyric acid] | < 100 | ++ (++, >100) | ++ (++, >100) | +++ (+++, >1000)
9 | O=C1C[C@H](NC(=O)[C@H](CC2CC2)NC(=O)C2CC2)C(O)O1 (stereo partly drawn) [Example 21, (3S)-(3-Cyclopropyl-(2S)-(cyclopropylcarbonylamino)-propionylamino)-4-oxo-butyric acid] | < 100 | + (+, >10) | ++ (++, >100) | ++ (++, >100)
